Measured values from patent publication US20110321198A1, “POLYPEPTIDE HAVING FUNCTION FOR DELAYING ANTHESIS OR SUPPRESSING GROWTH, POLYNUCLEOTIDE ENCODING THE SAME, AND USE THEREOF” (priority 2009, published 2011).
“Also recorded” adds a separate entry of the source.

Experiments:
[1] = test system: Arabidopsis thaliana wild-type (Col); assay: Germination efficiency under paclobutrazol treatment, wild-type; format: in vivo; details: FIG. 10
From the text: (§1) It is generally known that GA is involved in germination as well as hypocotyl growth as shown in Example 5. Hypocotyl growth or adult heights are associated with cell elongation. Typically, GA, auxin and brassinosteroid […] are involved in cell elongation while plant hormones such as GA and ABA are responsible for germination. As for the response to GA, its molecular mechanisms are different for different phenomena. Thus, in order to support the fact that the delayed flowering and/or dwarfism phenotype is attributed to the deficient response of sil1-1D to GA, the wild-type (Col) and sil1-1D were treated with paclobutrazol (PAC), which inhibits the biosynthesis of GA, and their germination efficiencies were compared. […] Generally, when GA biosynthesis was inhibited by PAC, germination efficiency was lowered, with a lowered response to GA.

[2] = test system: sil1-1D mutant; assay: Germination efficiency under paclobutrazol treatment, sil1-1D mutant; format: in vivo, Arabidopsis thaliana; details: FIG. 10
From the text: as §1

[3] = test system: sil1-1D mutant; assay: Hypocotyl length response to GA, sil1-1D mutant; format: in vivo, Arabidopsis thaliana; details: various concentrations of GA, white light, compared to wild-type, FIG. 9
Description: (§2) In most cases, these phenomena occur when the plant becomes low in GA response or GA biosynthesis level. Thus, the response of sil1-1D to GA was examined. In this regard, hypocotyl lengths of 15 plantlets were measured after they were grown in ½ Gamborg B5 media (Duchefa) containing 1% sucrose and various concentrations of GA under white light.

[4] = test system: Arabidopsis thaliana wild-type (Col); assay: Hypocotyl length response to GA, wild-type; format: in vivo; details: various concentrations of GA, white light, FIG. 9
Description: as §2

CC(C)(C)[C@@H](O)[C@@H](Cc1ccc(Cl)cc1)n1cncn1 (racemic) [PAC, paclobutrazol]
germination ([1]; wild-type (Col), 0.35 mg/L PAC): ~100%
germination efficiency ([1]; wild-type, increasing PAC concentration): decreased with increasing of PAC concentration
germination ([2]; 0.35 mg/L PAC): about 50%
germination efficiency ([2]; increasing PAC concentration): decreased with increasing of PAC concentration

gibberellin [GA]
hypocotyl growth [3]: short hypocotyls in response to GA; also recorded: significantly reduced
hypocotyl growth [4]: increased with increasing of GA concentration
